In one assay the test system is Aedes aegypti. Put plainly: 12 well plate knockdown test. It counts as in vivo. To be noted: 1 h, read-out: Aedes aegypti 1 hour % KD; for pest or weed control at 0.2 ppm: Rate 0.2 PPM; for pest or weed control at 2 ppm: Rate 2 PPM; for pest or weed control at 20 ppm: Rate 20 PPM; for pest or weed control at 200 ppm: Rate 200 PPM. As to the method: (§1) The individual wells of a twelve (12) well tissue culture plates were treated with 100 μl of an ethanol solution containing a test compound at a defined concentration. Once the deposits were dry, five non-blood fed adult female Aedes aegypti or Anopheles stephensi (between two to five day old) were added to each well, and sustained with a 10% sucrose solution in a cotton wool plug. Assessment of the knockdown after 1 hour was carried out. Where multiple replicates of a treatment have been undertaken, the mean of those replicates is reported.

Another assay relates to Anopheles stephensi. As to the kind of experiment: 12 well plate knockdown test. It counts as in vivo. The settings on record: 1 h, read-out: Anopheles stephensi 1 hour % KD; for pest or weed control at 0.2 ppm: Rate 0.2 PPM; for pest or weed control at 2 ppm: Rate 2 PPM; for pest or weed control at 20 ppm: Rate 20 PPM; for pest or weed control at 200 ppm: Rate 200 PPM. On the procedure: as §1

With `CCCN1CN=C(c2cnccc2C(F)(F)F)OC1=O` [I.16], in the assay with Aedes aegypti, the pest or weed control at 0.2 ppm came to 0%, the pest or weed control at 2 ppm was determined as 60%, the pest or weed control at 20 ppm was 60% and the pest or weed control at 200 ppm turned out to be 100%. Also, in the assay with Anopheles stephensi, the pest or weed control at 0.2 ppm is 0%, the pest or weed control at 2 ppm came to 0%, the pest or weed control at 20 ppm is 0% and the pest or weed control at 200 ppm stood at 0%.
In the case of `COCCOC(=O)ON(C(=O)c1cnccc1C(F)(F)F)C(C)C` [I.29], in the assay with Aedes aegypti, the pest or weed control at 0.2 ppm was found to be 0%, the pest or weed control at 2 ppm was 0%, the pest or weed control at 20 ppm is 0% and the pest or weed control at 200 ppm stood at 100%. Moreover, in the assay on Anopheles stephensi, the pest or weed control at 0.2 ppm is 20%, the pest or weed control at 2 ppm was determined as 60%, the pest or weed control at 20 ppm was 100% and the pest or weed control at 200 ppm was 100%.
Regarding `CCOC(=O)ON(C)C(=O)c1cnccc1C(F)(F)F` [I.9], in the assay on Aedes aegypti, the pest or weed control at 0.2 ppm turned out to be 100%, the pest or weed control at 2 ppm is 100%, the pest or weed control at 20 ppm amounted to 100% and the pest or weed control at 200 ppm is 100%. Besides, in the assay on Anopheles stephensi, the pest or weed control at 0.2 ppm came out at 20%, the pest or weed control at 2 ppm amounted to 100%, the pest or weed control at 20 ppm stood at 100% and the pest or weed control at 200 ppm was 100%.
Take `CC(=O)CNC(=O)c1cnccc1C(F)(F)F` [I.23]: in the assay with Aedes aegypti, the pest or weed control at 0.2 ppm was 40%, the pest or weed control at 2 ppm is 100%, the pest or weed control at 20 ppm came out at 100% and the pest or weed control at 200 ppm worked out at 100%. For the same compound, in the assay with Anopheles stephensi, the pest or weed control at 0.2 ppm was determined as 0%, the pest or weed control at 2 ppm turned out to be 20%, the pest or weed control at 20 ppm amounted to 40% and the pest or weed control at 200 ppm came to 100%.
`CCN(Cc1ccccc1)C(=O)c1cnccc1C(F)(F)F` [I.15]: in the assay on Aedes aegypti, the pest or weed control at 0.2 ppm was 100%, the pest or weed control at 2 ppm amounted to 100%, the pest or weed control at 20 ppm stood at 100% and the pest or weed control at 200 ppm was found to be 100%. Further, in the assay with Anopheles stephensi, the pest or weed control at 0.2 ppm is 0%, the pest or weed control at 2 ppm came to 0%, the pest or weed control at 20 ppm is 0% and the pest or weed control at 200 ppm came to 0%.
Turning to `CN(C)CNC(=O)c1cnccc1C(F)(F)F` [I.6], in the assay on Aedes aegypti, the pest or weed control at 0.2 ppm amounted to 100%, the pest or weed control at 2 ppm came to 100%, the pest or weed control at 20 ppm stood at 100% and the pest or weed control at 200 ppm stood at 100%. For the same compound, in the assay on Anopheles stephensi, the pest or weed control at 0.2 ppm came to 0%, the pest or weed control at 2 ppm stood at 20%, the pest or weed control at 20 ppm turned out to be 40% and the pest or weed control at 200 ppm stood at 40%.
For the compound `CS(=O)(=O)NC(=O)c1cnccc1C(F)(F)F` [I.24], in the assay with Aedes aegypti, the pest or weed control at 0.2 ppm stood at 100%, the pest or weed control at 2 ppm came out at 100%, the pest or weed control at 20 ppm was 100% and the pest or weed control at 200 ppm was determined as 100%. In the assay on Anopheles stephensi, the pest or weed control at 0.2 ppm was determined as 40%, the pest or weed control at 2 ppm was 60%, the pest or weed control at 20 ppm came to 100% and the pest or weed control at 200 ppm was 100%.
As to `O=C(NCc1ccc(Cl)cc1)c1cnccc1C(F)(F)F` [I.2], in the assay with Aedes aegypti, the pest or weed control at 0.2 ppm is 100%, the pest or weed control at 2 ppm turned out to be 100%, the pest or weed control at 20 ppm is 100% and the pest or weed control at 200 ppm was 100%. For the same compound, in the assay with Anopheles stephensi, the pest or weed control at 0.2 ppm came out at 0%, the pest or weed control at 2 ppm came to 60%, the pest or weed control at 20 ppm is 80% and the pest or weed control at 200 ppm came out at 100%.
As to `CN(OC(=O)OCc1ccccc1)C(=O)c1cnccc1C(F)(F)F` [I.8], in the assay on Aedes aegypti, the pest or weed control at 0.2 ppm came to 100%, the pest or weed control at 2 ppm was 100%, the pest or weed control at 20 ppm is 100% and the pest or weed control at 200 ppm is 100%. Besides, in the assay with Anopheles stephensi, the pest or weed control at 0.2 ppm stood at 60%, the pest or weed control at 2 ppm was found to be 100%, the pest or weed control at 20 ppm is 100% and the pest or weed control at 200 ppm came to 100%.
`C=CCONC(=O)c1cnccc1C(F)(F)F` [I.17]: in the assay with Aedes aegypti, the pest or weed control at 0.2 ppm is 0%, the pest or weed control at 2 ppm was 0%, the pest or weed control at 20 ppm turned out to be 0% and the pest or weed control at 200 ppm turned out to be 0%. Also, in the assay with Anopheles stephensi, the pest or weed control at 0.2 ppm stood at 0%, the pest or weed control at 2 ppm amounted to 0%, the pest or weed control at 20 ppm turned out to be 20% and the pest or weed control at 200 ppm is 100%.
Turning to `O=C(NC(=O)c1cnccc1C(F)(F)F)c1cccs1` [I.13], in the assay with Aedes aegypti, the pest or weed control at 0.2 ppm was found to be 0%, the pest or weed control at 2 ppm came to 100%, the pest or weed control at 20 ppm turned out to be 100% and the pest or weed control at 200 ppm came out at 100%. Moreover, in the assay with Anopheles stephensi, the pest or weed control at 0.2 ppm turned out to be 0%, the pest or weed control at 2 ppm is 60%, the pest or weed control at 20 ppm was determined as 100% and the pest or weed control at 200 ppm was 100%.
On to `CCNNC(=O)c1cnccc1C(F)(F)F` [I.27], for which, in the assay with Aedes aegypti, the pest or weed control at 0.2 ppm came out at 0%, the pest or weed control at 2 ppm is 100%, the pest or weed control at 20 ppm was determined as 100% and the pest or weed control at 200 ppm turned out to be 100%. Further, in the assay with Anopheles stephensi, the pest or weed control at 0.2 ppm came out at 0%, the pest or weed control at 2 ppm was determined as 0%, the pest or weed control at 20 ppm turned out to be 100% and the pest or weed control at 200 ppm was 100%.
In the case of `CC(C)NOC(=O)c1cnccc1C(F)(F)F` [I.12], in the assay on Aedes aegypti, the pest or weed control at 0.2 ppm came to 100%, the pest or weed control at 2 ppm worked out at 100%, the pest or weed control at 20 ppm is 100% and the pest or weed control at 200 ppm came out at 100%. In the assay with Anopheles stephensi, the pest or weed control at 0.2 ppm was determined as 0%, the pest or weed control at 2 ppm turned out to be 80%, the pest or weed control at 20 ppm is 100% and the pest or weed control at 200 ppm was found to be 100%.
With `CN(C)C(=O)c1cnccc1C(F)(F)F` [I.4], in the assay with Aedes aegypti, the pest or weed control at 0.2 ppm stood at 100%, the pest or weed control at 2 ppm worked out at 100%, the pest or weed control at 20 ppm is 100% and the pest or weed control at 200 ppm came out at 100%. Further, in the assay on Anopheles stephensi, the pest or weed control at 0.2 ppm was determined as 40%, the pest or weed control at 2 ppm came out at 100%, the pest or weed control at 20 ppm was 100% and the pest or weed control at 200 ppm was 100%.
As for `NC(=S)c1cnccc1C(F)(F)F` [I.22], in the assay on Aedes aegypti, the pest or weed control at 0.2 ppm turned out to be 100%, the pest or weed control at 2 ppm amounted to 100%, the pest or weed control at 20 ppm was found to be 100% and the pest or weed control at 200 ppm was found to be 100%. In addition, in the assay on Anopheles stephensi, the pest or weed control at 0.2 ppm was determined as 40%, the pest or weed control at 2 ppm is 60%, the pest or weed control at 20 ppm was found to be 60% and the pest or weed control at 200 ppm stood at 100%.
For `C[Si](C)(C)CNC(=O)c1cnccc1C(F)(F)F` [I.25], in the assay with Aedes aegypti, the pest or weed control at 0.2 ppm stood at 100%, the pest or weed control at 2 ppm worked out at 100%, the pest or weed control at 20 ppm is 100% and the pest or weed control at 200 ppm was 100%. Besides, in the assay with Anopheles stephensi, the pest or weed control at 0.2 ppm was found to be 80%, the pest or weed control at 2 ppm stood at 80%, the pest or weed control at 20 ppm stood at 100% and the pest or weed control at 200 ppm is 100%.
Turning to `CN(OC(=O)Oc1ccccc1)C(=O)c1cnccc1C(F)(F)F` [I.28], in the assay on Aedes aegypti, the pest or weed control at 0.2 ppm was 20%, the pest or weed control at 2 ppm is 40%, the pest or weed control at 20 ppm came to 60% and the pest or weed control at 200 ppm came to 100%. Moreover, in the assay with Anopheles stephensi, the pest or weed control at 0.2 ppm is 0%, the pest or weed control at 2 ppm turned out to be 0%, the pest or weed control at 20 ppm came out at 40% and the pest or weed control at 200 ppm was 100%.
As to `CC(C)CC(=O)ON(C)C(=O)c1cnccc1C(F)(F)F` [I.10], in the assay with Aedes aegypti, the pest or weed control at 0.2 ppm turned out to be 100%, the pest or weed control at 2 ppm was determined as 100%, the pest or weed control at 20 ppm amounted to 100% and the pest or weed control at 200 ppm was found to be 100%. For the same compound, in the assay on Anopheles stephensi, the pest or weed control at 0.2 ppm was found to be 40%, the pest or weed control at 2 ppm came out at 60%, the pest or weed control at 20 ppm turned out to be 100% and the pest or weed control at 200 ppm came to 100%.

These data come from patent publication US20170094972A1, “Compounds and Compositions Having Knock-Down Activity Against Insect Pests” (priority 2015, published 2017).
